Measured values as given in patent publication US7259004B1, “Endophytic streptomycetes from higher plants with biological activity” (Montana State University, priority 2002, dated 2007).
≈ marks a conversion by molar mass, not a printed value. Read-outs that look alike come from different tables or passages of the source.

Legend:
Bacillus anthracis 28 = assay: microbe, parasite or virus in culture; type: cell-based; details: Bacillus anthracis, 28, read-out: MIC Bacillus anthracis 28
[1] = tested on: Protein synthesis in Bacillus subtilis; assay: macromolecular synthesis whole cell assay, [3H]amino acid mixture incorporation; type: cell-based; details: 1×MIC
[2] = tested on: Staphylococcus aureus ATCC 33591 (MRSA); assay: microbroth dilution MIC; type: cell-based; details: Staphylococcus aureus; Table 15
[3] = tested on: Streptococcus pneumoniae ATCC 70676; assay: microbroth dilution MIC; type: cell-based; details: ATCC70676, Table 15, read-out: MIC Streptococcus pneumoniae ATCC 70676
E. faecalis 29212 = assay: microbroth dilution MIC; type: cell-based, Enterococcus faecalis; details: Enterococcus faecalis, ATCC29212; Table 15; read-out: MIC Enterococcus faecalis ATCC 29212
[4] = tested on: Streptococcus pneumoniae ATCC 70674; assay: microbroth dilution MIC; type: cell-based; details: ATCC70674, Table 15, read-out: MIC Streptococcus pneumoniae ATCC 70674
S. aureus 29213 = assay: microbroth dilution MIC; type: cell-based, Staphylococcus aureus; details: Staphylococcus aureus, ATCC29213; Table 15; read-out: MIC Staphylococcus aureus ATCC 29213
[5] = tested on: Bacillus anthracis 40/BA 100; assay: microbe, parasite or virus in culture; type: cell-based; details: 40/BA100, read-out: MIC Bacillus anthracis 40/BA 100
[6] = tested on: Plasmodium falciparum strain CSC-1 (Honduras); assay: antimalarial assay, 3H-phenylalanine radiobioassay in human red blood cells; details: Plasmodium falciparum, Erythrocyte, read-out: IC50 Plasmodium falciparum
Bacillus anthracis 14578 = assay: microbe, parasite or virus in culture; type: cell-based; details: Bacillus anthracis, 14578, read-out: MIC Bacillus anthracis 14578
[7] = tested on: Shigella dysenteriae ATCC 11835; assay: microbroth dilution MIC; type: cell-based; details: ATCC11835, Table 15, read-out: MIC Shigella dysenteriae ATCC 11835
[8] = tested on: Staphylococccus simulans 11631; assay: microbroth dilution MIC; type: cell-based, Staphylococcus simulans; details: Staphylococcus simulans, ATCC11631; Table 15; read-out: MIC Staphylococcus simulans ATCC 11631
[9] = tested on: Staphylococcus aureus GISA, ATCC 700787; assay: microbroth dilution MIC; type: cell-based; details: ATCC700787, Table 15, read-out: MIC Staphylococcus aureus GISA, ATCC 700787
[10] = tested on: RNA synthesis in Bacillus subtilis; assay: macromolecular synthesis whole cell assay, [3H]uridine incorporation; type: cell-based; details: 1×MIC
[11] = solubility in acetonitrile
[12] = tested on: DNA synthesis in Bacillus subtilis; assay: macromolecular synthesis whole cell assay, [3H]thymidine incorporation; type: cell-based; details: 5 min; 1×MIC
[13] = tested on: Streptococcus pneumoniae 49619; assay: microbroth dilution MIC; type: cell-based; details: Streptococcus pneumoniae, ATCC49619; Table 15; read-out: MIC Streptococcus pneumoniae ATCC 49619
E. faecium 49624 = assay: microbroth dilution MIC; type: cell-based, Enterococcus faecium; details: Enterococcus faecium, ATCC49624; Table 15; read-out: MIC Enterococcus faecium ATCC 49624
S. aureus ATCC 6583P = assay: MIC with and without double stranded DNA; type: cell-based, Staphylococcus aureus; details: Staphylococcus aureus, ATCC6583P, read-out: MIC S. aureus ATCC 6583P
B. subtilis 1A757 = assay: microbe, parasite or virus in culture; type: cell-based, Bacillus subtilis; details: for MIC: Bacillus subtilis, read-out: MIC B. subtilis 1A757
S. epidermis 12228 = assay: microbroth dilution MIC; type: cell-based, Staphylococcus epidermidis; details: Staphylococcus epidermidis, ATCC12228; Table 15; read-out: MIC Staphylococcus epidermidis ATCC 12228
[14] = tested on: Listeria monocytogenes 19114; assay: microbroth dilution MIC; type: cell-based; details: Listeria monocytogenes, ATCC19114; Table 15; read-out: MIC Listeria monocytogenes ATCC 19114
[15] = tested on: Human Cervical Cancer Epithelial ME180; assay: CellTiter 96 Aqueous Non-Radioactive Cell Proliferation Assay; type: cell-based; details: Homo sapiens, ME-180, read-out: IC50 Human Cervical Cancer Epthelial ME180
Procedure, shortened: (§1)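 Cells rested 5 h at 37° C after seeding, then treated in triplicate with two-fold serial dilutions of compound. A-549 and ME-180 were exposed for 48 h. After 1–4 h MTS reagent at 37° C, OD490 was read and corrected by subtracting medium-only blanks.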

[16] = as above; type: cell-based, human; details: human, read-out: IC50 cytotoxicity, human mammary epithelial cells
[17] = tested on: Human Primary Mammary Epithelial HMEC; assay: as above; type: cell-based; details: Homo sapiens, HMEC, read-out: IC50 Human Primary Mammary Epithelial HMEC, Table 12
[18] = tested on: Human Lung Cancer Epithelial A549; assay: as above; type: cell-based; details: Homo sapiens, A549, read-out: IC50 Human Lung Cancer Epithelial A549
Procedure, shortened: as §1

[19] = tested on: Human Breast Cancer Epithelial BT-20; assay: as above; type: cell-based; details: for IC50: Homo sapiens
[20] = tested on: Staphylococccus aureus 27734; assay: microbroth dilution MIC; type: cell-based, Staphylococcus aureus; details: Staphylococcus aureus, ATCC27734; Table 15; read-out: MIC Staphylococcus aureus ATCC 27734
Bacillus anthracis 62-8 = assay: microbe, parasite or virus in culture; type: cell-based; details: Bacillus anthracis, 628, read-out: MIC Bacillus anthracis 62-8
[21] = tested on: Listeria monocytogenes 19115; assay: microbroth dilution MIC; type: cell-based; details: Listeria monocytogenes, ATCC19115; Table 15; read-out: MIC Listeria monocytogenes ATCC 19115
[22] = tested on: Enterococcus faecalis ATCC 51299 (VRE); assay: microbroth dilution MIC; type: cell-based; details: Enterococcus faecalis; Table 15

In the case of CS[C@H]1SC[C@H]2C(=O)N(C)[C@@H](C(C)C)C(=O)OC[C@@H](NC(=O)c3cnc4ccccc4n3)C(=O)N[C@@H](C)C(=O)N(C)[C@@H]1C(=O)N(C)[C@@H](C(C)C)C(=O)OC[C@@H](NC(=O)c1cnc3ccccc3n1)C(=O)N[C@@H](C)C(=O)N2C [Echinomycin, reference compound], the MIC (Bacillus anthracis 28) is reported as 2.4 µg/mL (≈ 2.18 µM), the “% [3H]amino acid mixture (Protein synthesis) incorporation of that of the untreated culture” value ([1]; 5 min) is reported as 73% and the “% [3H]amino acid mixture (Protein synthesis) incorporation of that of the untreated culture” value ([1]; 10 min) is reported as 62%. It also gave an MIC [2] of 0.5 µg/mL (≈ 0.454 µM), an MIC [3] of under 0.0325 µg/mL and an MIC (E. faecalis 29212) of 0.125 µg/mL (≈ 0.114 µM). The MIC [4] was under 0.0325 µg/mL, the MIC (S. aureus 29213) was 0.5 µg/mL (≈ 0.454 µM) and the MIC [5] was 1.4 µg/mL (≈ 1.27 µM). The IC50 [6] was 4.08 ± 0.1 ng/mL (≈ 0.0037 µM), the MIC (Bacillus anthracis 14578) was 1.99 µg/mL (≈ 1.81 µM) and the MIC [7] was 8 µg/mL (≈ 7.26 µM). For the same molecule, the MIC [8] was 0.25 µg/mL (≈ 0.227 µM), the MIC [9] was 1 µg/mL (≈ 0.908 µM) and the “% [3H]uridine (RNA synthesis) incorporation of that of the untreated culture” value ([10]; 5 min) was 41%. For the same molecule, the “% [3H]uridine (RNA synthesis) incorporation of that of the untreated culture” value ([10]; 10 min) was 37%, the Solubility in acetonitrile [11] was “sparingly soluble” and the “% [3H]thymidine (DNA synthesis) incorporation of that of the untreated culture” value [12] was 1%. It also gave an MIC [13] of under 0.0325 µg/mL, an MIC (E. faecium 49624) of at most 0.062 µg/mL and an MIC (S. aureus ATCC 6583P; DNA +, 20 micrograms per well of sheared salmon sperm DNA) of 16 µg/mL (≈ 14.5 µM). The MIC (S. aureus ATCC 6583P; DNA −) was 0.5 µg/mL (≈ 0.454 µM), the “1×MIC against Bacillus subtilis” value (B. subtilis 1A757) was 0.25 micrograms/ml and the MIC (B. subtilis 1A757; 1A757, DNA +, 20 micrograms per well of sheared salmon sperm DNA) was 8 µg/mL (≈ 7.26 µM). For the same molecule, the MIC (B. subtilis 1A757; 1A757, DNA −) was 0.125 µg/mL (≈ 0.114 µM), the MIC (S. epidermis 12228) was 0.25 µg/mL (≈ 0.227 µM) and the MIC [14] was 0.5 µg/mL (≈ 0.454 µM). The IC50 [15] was 0.023 µg/mL (≈ 0.0209 µM), the IC50 at 48 h ([16]; Example 15) was 0.0108 ± 0.0011 µg/mL (≈ 0.00981 µM) and the IC50 at 48 h ([16]; text of Examples 18, 19) was 4.8 µg/mL (≈ 4.36 µM). The IC50 [17] was 0.0108 µg/mL (≈ 0.00981 µM), the IC50 [18] was 0.145 µg/mL (≈ 0.132 µM) and the IC50 ([19]; BT-20, read-out: IC50 Human Breast Cancer Eipthelial BT-20, Table 12) was 4.8 ng/mL (≈ 0.00436 µM). The IC50 ([19]; BT-20, read-out: IC50 human breast cancer cell line BT 20, text of Examples 15, 18, 19) was 4.8 ng/mL (≈ 0.00436 µM), the “IC50 human breast cancer cell line BT 20” value ([19]; text of Examples 15, 18, 19, listed as echnimonycin) was 6.5 ng/mL (≈ 0.0059 µM) and the MIC [20] was 0.25 µg/mL (≈ 0.227 µM). For the same molecule, the MIC (Bacillus anthracis 62-8) was 1.4 µg/mL (≈ 1.27 µM), the MIC [21] was 0.25 µg/mL (≈ 0.227 µM) and the MIC [22] was 0.125 µg/mL (≈ 0.114 µM).
